{
  "source": "ChEMBL document CHEMBL4421732",
  "about": "“Use of small molecule inhibitors targeting EYA tyrosine phosphatase” (2017)",
  "key": {"Aorta [1]": {"test_system": "Aorta", "experiment": "Inhibition of micro-vessel branching in […] mouse aorta cultured in collagen gels assessed as reduction in aortic ring sprouting at 7.5 uM by aortic ring sprouting assay", "assay_type": "functional, tissue-based"}, "Aorta [2]": {"test_system": "Aorta", "experiment": "Inhibition of micro-vessel branching in […] mouse aorta cultured in collagen gels assessed as reduction in initial sprouting at 7.5 uM by aortic ring sprouting assay", "assay_type": "functional, tissue-based"}, "Aorta [3]": {"test_system": "Aorta", "experiment": "Inhibition of micro-vessel branching in […] mouse aorta cultured in collagen gels assessed as attenuation of branching at 7.5 uM by aortic ring sprouting assay", "assay_type": "functional, tissue-based"}, "HUVEC": {"test_system": "HUVEC", "experiment": "Inhibition of cell proliferation of HUVEC incubated for 3 days by WST8 dye based assay relative to control", "assay_type": "functional, Homo sapiens", "details": "for inhibition: Homo sapiens"}, "[4]": {"molecular_target": "T1, Protein phosphatase EYA2 (Homo sapiens) (UniProt O00167)", "T1 sequence (whole entry)": "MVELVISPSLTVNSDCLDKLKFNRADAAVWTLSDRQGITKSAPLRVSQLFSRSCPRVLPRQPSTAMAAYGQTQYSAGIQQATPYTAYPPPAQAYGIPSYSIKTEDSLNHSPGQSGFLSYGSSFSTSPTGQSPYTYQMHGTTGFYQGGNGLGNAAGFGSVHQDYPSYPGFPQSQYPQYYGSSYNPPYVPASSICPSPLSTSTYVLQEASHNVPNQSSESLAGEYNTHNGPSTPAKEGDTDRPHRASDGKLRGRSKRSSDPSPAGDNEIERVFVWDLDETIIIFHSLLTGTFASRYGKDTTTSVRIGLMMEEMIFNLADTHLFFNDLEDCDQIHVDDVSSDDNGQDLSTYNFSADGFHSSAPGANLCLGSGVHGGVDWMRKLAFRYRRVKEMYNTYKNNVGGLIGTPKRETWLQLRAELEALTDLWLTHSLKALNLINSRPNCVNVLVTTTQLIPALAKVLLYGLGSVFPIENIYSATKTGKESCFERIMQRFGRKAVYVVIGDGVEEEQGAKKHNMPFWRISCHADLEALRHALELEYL", "experiment": "Inhibition of EYA2 (unknown origin) stably transfected in human MCF10A cells assessed as inhibition of cell migration at 7.5 uM by transwell assay", "assay_type": "cell-based"}, "Danio rerio [5]": {"species_on_record": "Danio rerio", "experiment": "Induction of vasculature defects in 5.25 hpf stage FLK1-GFP transgenic Zebrafish embryos assessed as reduction in intersegmental vessel number and extension measured at 24 hpf stage by fluorescence microscopy", "assay_type": "functional, organism-based"}, "Danio rerio [6]": {"species_on_record": "Danio rerio", "experiment": "Induction of vasculature defects in 5.25 hpf stage FLK1-GFP transgenic Zebrafish embryos assessed as reduction of intersegmental vessels at 0.25 uM measured at 24 hpf stage by fluorescence microscopy", "assay_type": "functional, organism-based"}, "Danio rerio [7]": {"species_on_record": "Danio rerio", "experiment": "Induction of vasculature defects in 20 hpf stage FLK1-GFP transgenic Zebrafish embryos measured at 24 hpf stage by fluorescence microscopy", "assay_type": "functional, organism-based"}, "Danio rerio [8]": {"species_on_record": "Danio rerio", "experiment": "Induction of general morphology changes in 20 hpf stage FLK1-GFP transgenic Zebrafish embryos measured at 24 hpf stage by fluorescence microscopy", "assay_type": "functional, organism-based"}, "[9]": {"molecular_target": "T2, Protein phosphatase EYA3 (Homo sapiens) (UniProt Q99504)", "T2 sequence (whole entry)": "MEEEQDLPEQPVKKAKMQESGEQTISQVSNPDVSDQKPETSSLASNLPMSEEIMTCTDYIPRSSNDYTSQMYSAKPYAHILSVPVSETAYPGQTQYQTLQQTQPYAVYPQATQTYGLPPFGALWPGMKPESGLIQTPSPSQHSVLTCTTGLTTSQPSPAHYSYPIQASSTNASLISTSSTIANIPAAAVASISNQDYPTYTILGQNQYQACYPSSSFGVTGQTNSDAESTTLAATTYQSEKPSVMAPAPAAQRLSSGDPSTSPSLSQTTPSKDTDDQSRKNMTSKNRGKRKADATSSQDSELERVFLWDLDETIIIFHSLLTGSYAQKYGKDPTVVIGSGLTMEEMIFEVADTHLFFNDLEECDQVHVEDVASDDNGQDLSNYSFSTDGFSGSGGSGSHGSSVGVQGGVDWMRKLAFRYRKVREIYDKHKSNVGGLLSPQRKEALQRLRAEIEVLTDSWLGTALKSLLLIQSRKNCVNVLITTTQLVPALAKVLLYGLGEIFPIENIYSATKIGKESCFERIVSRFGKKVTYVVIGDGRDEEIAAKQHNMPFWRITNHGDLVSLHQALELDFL", "details": "3 to 10 uM", "description": "Competitive inhibition of poly-histidine and GST-tagged full length human Eya3 isoform 2 (127 to 573 residues) at 3 to 10 uM using para-nitrophenol phosphate substrate incubated for 30 mins"}, "[10]": {"molecular_target": "T2, Protein phosphatase EYA3 (Homo sapiens)", "details": "5 to 10 uM", "description": "Inhibition of poly-histidine and GST-tagged full length human Eya3 isoform 2 (127 to 573 residues) assessed as reduction in Vmax at 5 to 10 uM using para-nitrophenol phosphate substrate incubated for 30 mins"}, "[11]": {"molecular_target": "T2, Protein phosphatase EYA3 (Homo sapiens)", "details": "5 to 10 uM", "remark": "listed apart in the source", "description": "Inhibition of poly-histidine and GST-tagged full length human Eya3 isoform 2 (127 to 573 residues) assessed as reduction in Km at 5 to 10 uM using para-nitrophenol phosphate substrate incubated for 30 mins"}},
  "note": "Active and inactive are the calls of the source. The rule behind the calls is not given here.",
  "data": [
    {"smiles": "CC(O)c1oc2ccccc2c1C(=O)c1cc(Br)c(O)c(Br)c1", "note": "(configuration not stated)", "values": [
      {"measurement": "inhibition", "setting": "Aorta [1]", "value": "Dose-dependent effect"},
      {"measurement": "inhibition", "setting": "Aorta [2]", "value": "Dose-dependent effect"},
      {"measurement": "inhibition", "setting": "Aorta [3]", "value": "Dose-dependent effect"}
    ]},
    {"smiles": "CCc1oc2cc(O)ccc2c1C(=O)c1cc(Br)c(O)c(Br)c1", "values": [
      {"measurement": "inhibition (INH)", "setting": "HUVEC", "value": ">50", "unit": "%"},
      {"measurement": "inhibition", "setting": "Aorta [1]", "value": "Dose-dependent effect"},
      {"measurement": "inhibition", "setting": "Aorta [2]", "value": "Dose-dependent effect"},
      {"measurement": "inhibition", "setting": "Aorta [3]", "value": "Dose-dependent effect"}
    ]},
    {"smiles": "CCCCc1oc2ccccc2c1C(=O)c1ccc(O)cc1", "values": [
      {"measurement": "inhibition", "setting": "[4]", "value": "Active"},
      {"measurement": "Activity", "setting": "Danio rerio [5]", "value": "Dose-dependent effect"},
      {"measurement": "Activity", "setting": "Danio rerio [6]", "value": "inactive"},
      {"measurement": "Activity", "setting": "Danio rerio [7]", "value": "inactive"},
      {"measurement": "Activity", "setting": "Danio rerio [8]", "value": "inactive"}
    ]},
    {"smiles": "CC(O)CCc1oc2ccccc2c1C(=O)c1cc(I)c(O)c(I)c1", "note": "(configuration not stated)", "values": [
      {"measurement": "inhibition", "setting": "Aorta [1]", "value": "inactive"},
      {"measurement": "inhibition", "setting": "Aorta [2]", "value": "inactive"},
      {"measurement": "inhibition", "setting": "Aorta [3]", "value": "inactive"}
    ]},
    {"smiles": "CCc1oc2ccccc2c1C(=O)c1ccc(O)cc1", "values": [
      {"measurement": "inhibition", "setting": "[4]", "value": "Active"},
      {"measurement": "inhibition", "setting": "HUVEC", "value": "inactive"},
      {"measurement": "Activity", "setting": "Danio rerio [5]", "value": "Dose-dependent effect"},
      {"measurement": "Activity", "setting": "Danio rerio [6]", "value": "inactive"},
      {"measurement": "Activity", "setting": "Danio rerio [7]", "value": "inactive"},
      {"measurement": "Activity", "setting": "Danio rerio [8]", "value": "inactive"}
    ]},
    {"smiles": "CCc1oc2ccc(O)cc2c1C(=O)c1cc(Br)c(O)c(Br)c1", "values": [
      {"measurement": "inhibition", "setting": "Aorta [1]", "value": "Dose-dependent effect"},
      {"measurement": "inhibition", "setting": "Aorta [2]", "value": "Dose-dependent effect"},
      {"measurement": "inhibition", "setting": "Aorta [3]", "value": "Dose-dependent effect"}
    ]},
    {"smiles": "Cc1oc2ccccc2c1C(=O)c1ccc(O)c(I)c1", "values": [
      {"measurement": "inhibition", "setting": "Aorta [1]", "value": "Dose-dependent effect"},
      {"measurement": "inhibition", "setting": "Aorta [2]", "value": "Dose-dependent effect"},
      {"measurement": "inhibition", "setting": "Aorta [3]", "value": "Dose-dependent effect"}
    ]},
    {"smiles": "Cc1oc2ccccc2c1C(=O)c1cc(I)c(O)c(I)c1", "values": [
      {"measurement": "inhibition", "setting": "Aorta [1]", "value": "Dose-dependent effect"},
      {"measurement": "inhibition", "setting": "Aorta [2]", "value": "Dose-dependent effect"},
      {"measurement": "inhibition", "setting": "Aorta [3]", "value": "Dose-dependent effect"}
    ]},
    {"smiles": "CCc1oc2ccccc2c1C(=O)c1cc(Br)c(O)c(Br)c1", "values": [
      {"measurement": "inhibition", "setting": "[4]", "value": "Active"},
      {"measurement": "inhibition", "setting": "HUVEC", "value": "inactive"},
      {"measurement": "Activity", "setting": "Danio rerio [5]", "value": "Dose-dependent effect"},
      {"measurement": "Activity", "setting": "Danio rerio [6]", "value": "Active"},
      {"measurement": "Activity", "setting": "Danio rerio [7]", "value": "inactive"},
      {"measurement": "Activity", "setting": "Danio rerio [8]", "value": "inactive"},
      {"measurement": "inhibition", "setting": "[9]", "value": "inactive"},
      {"measurement": "inhibition", "setting": "[10]", "value": "Active"},
      {"measurement": "inhibition", "setting": "[11]", "value": "Active"}
    ]},
    {"smiles": "CCCCc1oc2ccccc2c1C(=O)c1cc(I)c(O)c(I)c1", "values": [
      {"measurement": "inhibition", "setting": "Aorta [1]", "value": "Dose-dependent effect"},
      {"measurement": "inhibition", "setting": "Aorta [2]", "value": "Dose-dependent effect"},
      {"measurement": "inhibition", "setting": "Aorta [3]", "value": "Dose-dependent effect"}
    ]}
  ]
}
